System: Acinetobacter baumannii isolates
Test: Antimicrobial susceptibility test, disc diffusion method (CLSI M100-S24)
Type: cell-based
Design: key to Inhibition zone: “NZ” indicated that no zone of inhibition was observed
Settings: for susceptibility category: ATM disc; for Inhibition zone: disc diffusion
Protocol: A total of 33 non-duplicate, non-consecutive clinical isolates of Multi-Drug Resistant (MDR) Acinetobacter baumannii were collected from burn wards (“AB1-AB33”). Acinetobacter baumannii ATCC BAA 747 and Pseudomonas aeruginosa ATCC 27853 were used as control strains. The isolates were stored at −80° C. in trypticase soy broth containing 20% glycerol.
Antimicrobial susceptibility tests of the collection of isolates were conducted using the disc diffusion method. The experiment was performed according to the recommendations and guidelines of Clinical Laboratory Standard Institutes (CLSI M100-S24; 2014). Clinical and Laboratory Standards Institute (CLSI), “Performance standards for antimicrobial susceptibility testing; twenty-fourth informational supplement,” Document M100-S24, Clinical and Laboratory Standards Institute (CLSI), Wayne, Pa., USA, 2014.
A panel of commercial antibiotic discs (Amoxicillin (AMX), Amoxicillin/clavulanic acid (AMX/CLA), Piperacillin (PIP), Piperacillin/Tazobactam (PIP/TAZ), Ceftazidime (CAZ), Cefotaxime (CTX), Cefepime (FEP), Cefoxitin (FOX), Aztreonam (ATM), Imipenem (IP), Gentamicin (GEN), Amikacin (AK), Neomycin (NEO), Levofloxacin (LEV), Chloramphenicol (CHL), Tetracycline (TET), sulfamethoxazole/trimethoprim (SUL/TRI) was used for susceptibility testing. All commercial antibiotic discs were purchased from BBL (Becton Dickinson, USA).
Forty grams of Mueller-Hinton Agar (MHA) were suspended in 1 Liter distilled water and then boiled to dissolve the powder completely. The medium was sterilized by autoclaving at 121° C. for 15 min. After autoclaving, the medium was cooled to 45° C. and 25 mL of molten agar media was poured into sterile Petri dishes (90 mm diameter) to give a depth of about 4 mm. The surface of the agar was dried to remove excess moisture before use. The plates were stored at 4-8° C. in sealed plastic bags if not used immediately.
The inoculum suspension was prepared by selecting three to five morphologically similar colonies from overnight growth (16-24 h of incubation) on blood agar medium. […] The suspension density was measured using a UV spectrophotometer calibrated with a 0.5 McFarland standard. The density of the suspension was adjusted to McFarland 0.5 by addition of saline or more microorganisms. The adjusted inoculum suspension was used within 60 min of preparation.
A sterile cotton swab was dipped into the bacterial suspension and the excess fluid was removed by turning the swab against the inside wall of the tube to avoid over-inoculation of plates. The inoculum was spread evenly over the entire surface of the agar plate by swabbing in three directions.
The predetermined panel of antimicrobial disks was applied firmly on the inoculated Mueller-Hinton agar surface within 15 min of inoculation of the plates by a disc dispenser device. A maximum of six disks were accommodated on a 90-mm circular plate.
Within 15 min of application of antimicrobial disks, the plates were inverted and incubated aerobically at 35-37° C. for 18-20 h.
After incubation, inhibition zones were measured at the point where no obvious growth is detected by the unaided eye when the plate is held about 30 cm from the eye. Inhibition zone diameters were measured to the nearest millimeter with a ruler. The plates were read from the back of the plate with reflected light against a dark background. Zone diameters were interpreted and categorized as susceptible “S”, intermediate “I”, or resistant “R” according to the CLSI clinical breakpoint tables (see Table 1 and Table 2).

C[C@H]1[C@H](NC(=O)/C(=N\OC(C)(C)C(=O)O)c2csc(N)n2)C(=O)N1S(=O)(=O)O [ATM, Aztreonam]
susceptibility category (isolate AB1): R (Resistant ≤15)
Inhibition zone (isolate AB1): NZ
susceptibility category (isolate AB2): R (Resistant ≤15)
Inhibition zone (isolate AB2): NZ
susceptibility category (isolate AB3): R (Resistant ≤15)
Inhibition zone (isolate AB3): NZ
susceptibility category (isolate AB4): R (Resistant ≤15)
Inhibition zone (isolate AB4): NZ
susceptibility category (isolate AB5): R (Resistant ≤15)
Inhibition zone (isolate AB5): NZ
susceptibility category (isolate AB6): S (Sensitive ≥22)
Inhibition zone (isolate AB6): 20 mm
susceptibility category (isolate AB7): R (Resistant ≤15)
Inhibition zone (isolate AB7): NZ
susceptibility category (isolate AB8): R (Resistant ≤15)
Inhibition zone (isolate AB8): NZ
susceptibility category (isolate AB9): R (Resistant ≤15)
Inhibition zone (isolate AB9): NZ
susceptibility category (isolate AB10): R (Resistant ≤15)
Inhibition zone (isolate AB10): 13 mm
susceptibility category (isolate AB11): R (Resistant ≤15)
Inhibition zone (isolate AB11): NZ
susceptibility category (isolate AB12): R (Resistant ≤15)
Inhibition zone (isolate AB12): NZ
susceptibility category (isolate AB13): R (Resistant ≤15)
Inhibition zone (isolate AB13): NZ
susceptibility category (isolate AB14): R (Resistant ≤15)
Inhibition zone (isolate AB14): NZ
susceptibility category (isolate AB15): R (Resistant ≤15)
Inhibition zone (isolate AB15): 11 mm
susceptibility category (isolate AB16): S (Sensitive ≥22)
Inhibition zone (isolate AB16): 33 mm
susceptibility category (isolate AB17): R (Resistant ≤15)
Inhibition zone (isolate AB17): 15 mm
susceptibility category (isolate AB18): R (Resistant ≤15)
Inhibition zone (isolate AB18): 10 mm
susceptibility category (isolate AB19): R (Resistant ≤15)
Inhibition zone (isolate AB19): 8 mm
susceptibility category (isolate AB20): R (Resistant ≤15)
Inhibition zone (isolate AB20): NZ
susceptibility category (isolate AB21): R (Resistant ≤15)
Inhibition zone (isolate AB21): 7 mm
susceptibility category (isolate AB22): R (Resistant ≤15)
Inhibition zone (isolate AB22): NZ
susceptibility category (isolate AB23): R (Resistant ≤15)
Inhibition zone (isolate AB23): NZ
susceptibility category (isolate AB24): R (Resistant ≤15)
Inhibition zone (isolate AB24): NZ
susceptibility category (isolate AB25): R (Resistant ≤15)
Inhibition zone (isolate AB25): 13 mm
susceptibility category (isolate AB26): R (Resistant ≤15)
Inhibition zone (isolate AB26): 12 mm
susceptibility category (isolate AB27): R (Resistant ≤15)
Inhibition zone (isolate AB27): NZ
susceptibility category (isolate AB28): R (Resistant ≤15)
Inhibition zone (isolate AB28): NZ
susceptibility category (isolate AB29): R (Resistant ≤15)
Inhibition zone (isolate AB29): NZ
susceptibility category (isolate AB30): R (Resistant ≤15)
Inhibition zone (isolate AB30): 9 mm
susceptibility category (isolate AB31): R (Resistant ≤15)
Inhibition zone (isolate AB31): NZ
susceptibility category (isolate AB32): R (Resistant ≤15)
Inhibition zone (isolate AB32): 8 mm
susceptibility category (isolate AB33): R (Resistant ≤15)
Inhibition zone (isolate AB33): 9 mm

CC(C)(O/N=C(\C(=O)N[C@@H]1C(=O)N2C(C(=O)[O-])=C(C[n+]3ccccc3)CS[C@H]12)c1csc(N)n1)C(=O)O [CAZ, Ceftazidime]
Inhibition zone (isolate AB1): 20 mm
Inhibition zone (isolate AB2): 17 mm
Inhibition zone (isolate AB3): 26 mm
Inhibition zone (isolate AB4): 21 mm
Inhibition zone (isolate AB5): 9 mm
Inhibition zone (isolate AB6): 28 mm
Inhibition zone (isolate AB7): NZ
Inhibition zone (isolate AB8): NZ
Inhibition zone (isolate AB9): 21 mm
Inhibition zone (isolate AB10): NZ
Inhibition zone (isolate AB11): NZ
Inhibition zone (isolate AB12): NZ
Inhibition zone (isolate AB13): NZ
Inhibition zone (isolate AB14): NZ
Inhibition zone (isolate AB15): NZ
Inhibition zone (isolate AB16): 32 mm
Inhibition zone (isolate AB17): 12 mm
Inhibition zone (isolate AB18): NZ
Inhibition zone (isolate AB19): NZ
Inhibition zone (isolate AB20): NZ
Inhibition zone (isolate AB21): NZ
Inhibition zone (isolate AB22): NZ
Inhibition zone (isolate AB23): NZ
Inhibition zone (isolate AB24): NZ
Inhibition zone (isolate AB25): 17 mm
Inhibition zone (isolate AB26): 15 mm
Inhibition zone (isolate AB27): 8 mm
Inhibition zone (isolate AB28): 8 mm
Inhibition zone (isolate AB29): NZ
Inhibition zone (isolate AB30): NZ
Inhibition zone (isolate AB31): 8 mm
Inhibition zone (isolate AB32): 8 mm
Inhibition zone (isolate AB33): 22 mm

O=C(N[C@H](CO)[C@H](O)c1ccc([N+](=O)[O-])cc1)C(Cl)Cl [CHL, Chloramphenicol]
Inhibition zone (isolate AB1): NZ
Inhibition zone (isolate AB2): 24 mm
Inhibition zone (isolate AB3): 26 mm
Inhibition zone (isolate AB4): 23 mm
Inhibition zone (isolate AB5): 8 mm
Inhibition zone (isolate AB6): NZ
Inhibition zone (isolate AB7): NZ
Inhibition zone (isolate AB8): 7 mm
Inhibition zone (isolate AB9): 24 mm
Inhibition zone (isolate AB10): NZ
Inhibition zone (isolate AB11): NZ
Inhibition zone (isolate AB12): NZ
Inhibition zone (isolate AB13): NZ
Inhibition zone (isolate AB14): NZ
Inhibition zone (isolate AB15): 10 mm
Inhibition zone (isolate AB16): 30 mm
Inhibition zone (isolate AB17): 13 mm
Inhibition zone (isolate AB18): 8 mm
Inhibition zone (isolate AB19): 8 mm
Inhibition zone (isolate AB20): NZ
Inhibition zone (isolate AB21): NZ
Inhibition zone (isolate AB22): NZ
Inhibition zone (isolate AB23): NZ
Inhibition zone (isolate AB24): 8 mm
Inhibition zone (isolate AB25): NZ
Inhibition zone (isolate AB26): 25 mm
Inhibition zone (isolate AB27): NZ
Inhibition zone (isolate AB28): 14 mm
Inhibition zone (isolate AB29): 12 mm
Inhibition zone (isolate AB30): 11 mm
Inhibition zone (isolate AB31): 8 mm
Inhibition zone (isolate AB32): 9 mm
Inhibition zone (isolate AB33): 18 mm
